Data reported in patent publication US20140371267A1, “OPHTHALMIC COMPOSITION WITH NITRIC OXIDE DONOR COMPOUND AND METHOD OF FORMING AND USING SAME” (ALCON RESEARCH, LTD., priority 2009, published 2014).

How the values were obtained:
[1] = system: ARPE-19 cells; assay: 7-ketocholesterol-induced RPE cell death, WST-1 cell viability; type: cell-based; conditions: for % Survival: compared to media-treated cells
Procedure: Compound 1 was evaluated for its ability to prevent 7-ketocholesterol-induced retinal pigmented epithelial (RPE) cell death in vitro. ARPE-19 cells were grown in DMEM:F12 (Invitrogen) (1:1) with 10% FBS (HyClone) and 56 mM Na Bicarbonate (Gibco) in a 10% CO2 humidified 37° C. incubator. Cells were split at a ratio of 1:3 once per week and fed every 2-3 days. ARPE-19 cells were plated at a density of 12,500 cells per well in 100 μL, which is approximately […].
7-ketocholesterol (5-CHOLESTEN-3β-OL-7-ONE) and Cholesterol (5-CHOLESTEN-3β-OL) (Steraloids, Inc., Newport R.I.) were resuspended in 37° C. 45% 2-hydroxylpropyl-β-cyclodextrin at a concentration of 10 mM. Working dilutions of 1 mM are subsequently made in 37° C. DMEM:/F12 containing 0.1% FBS and NaBicarb. Further dilutions (5 to 30 μM) for treatment were also made in 37° C. DMEM:F12 with 0.1% FBS and NaBicarb to maintain activity of the 7-ketocholesterol. As negative controls, vehicle alone and cholesterol suspended in 2-HP-β-cyclodextrin were included in each experiment.
Cell proliferation reagent WST-1 (Roche), a tetrazolium salt that is cleaved to formazan through the mitochondrial succinate-tetrazolium-reductase system in live cells, was used as a measure of cell viability. Cells were treated with 7-ketocholesterol for 1 day, at which time 10 μL at of WST-1 reagent was added to each well containing 100 μL at of media. The plates were then incubated for 1-4 hours to allow for adequate color development and then absorbance was read in a microplate ELISA reader at […]. WST reagent was also added to one set of control wells containing media only. These readings were subtracted from each of the WST readings as background. Cell viability for all treated wells was normalized to the well with untreated cells and data is presented as percent survival as compared to untreated. The table below summarizes the results.

[2] = system: cynomolgus monkeys with ocular hypertension; assay: IOP reduction in lasered ocular hypertensive monkeys; type: in vivo; conditions: 150 μg in 30 μL drop, topical, lasered eye
Procedure: The ability of compound 1 of the present invention to reduce IOP was evaluated in cynomolgus monkeys with ocular hypertension produced by previous laser trabeculoplasty in the right eye. Animals had been trained to sit in restraint chairs and conditioned to accept experimental procedures without chemical restraint. Animals were administered a 30 μL drop containing 150 μg of compound 1 dissolved in vehicle to the lasered eye. IOP was determined with a pneumatonometer after light corneal anesthesia with dilute proparacaine. The drug was dosed 35 minutes after the baseline IOP was measured.

[3] = in vitro; versus GTN and SNAP; cited from earlier work
[4] = system: c-GMP; conditions: cited from earlier work
[5] = vasodilators; cited from earlier work

CC(C)CCC[C@@H](C)[C@H]1CC[C@H]2[C@@H]3C(=O)C=C4C[C@@H](O)CC[C@]4(C)[C@H]3CC[C@]12C [7-ketocholesterol, 5-CHOLESTEN-3β-OL-7-ONE, reference compound]
% Survival ([1]; 7-ketocholesterol 20 μM alone, 1 day): 50%

CC1(C)CC(O[N+](=O)[O-])CC(C)(C)N1[O] [Compound 1]
RPE cytoprotection ([1]; 10 μM): significant | RPE cytoprotection ([1]; 100 μM): complete | % Survival ([1]; compound at 100 nM, 7-ketocholesterol-treated cells): 60% | % Survival ([1]; compound at 1 μM, 7-ketocholesterol-treated cells): 60% | % Survival ([1]; compound at 10 μM, 7-ketocholesterol-treated cells): 75% | % Survival ([1]; compound at 100 μM, 7-ketocholesterol-treated cells): 100% | % IOP change from baseline ([2]; 1 hour after dosing): −15.3% | % IOP change from baseline ([2]; 3 hours after dosing): −16.7% | % IOP change from baseline ([2]; 6 hours after dosing): −20.7% | vasorelaxation efficacy [3]: superior activity | c-GMP concentration [4]: significant increase | c-GMP effect relative to GTN [4]: comparable to that of GTN | NO-tolerance in vivo [5]: do not produce NO-tolerance in vivo

CC1(C)CC(CO[N+](=O)[O-])C(C)(C)N1[O] (stereo not drawn) [Compound 2, 3-Nitratomethyl-Proxyl]
NO-tolerance in vivo [5]: do not produce NO-tolerance in vivo
